The results in this text go back to the NIST ThermoML archive (doi:10.1016/j.tca.2013.08.001).

Each structure is given as a SMILES string. Numbers after ± are expanded uncertainties.

For series [1] the following is noted: DTA.
The nature of series [2]: Molar enthalpy of transition or fusion. The following applies: DSC.

As for `CCCCCCCCCCCCCCCCCCCCCC` [docosane], the Triple point temperature in series [1] (Crystal 1) is on record as 318.08 ± 0.39 K; in series [1] (Crystal 2), 317.22 ± 0.39 K. In addition, the “Molar enthalpy of transition or fusion” value amounted to 11.7 ± 0.382 kcal/mol in series [2] (Crystal 1) and 6.92 ± 0.153 kcal/mol in series [2] (Crystal 2).
